Source: ChEMBL document CHEMBL6182869, “Tetracationic tetraaryltetranaphtho[2,3]porphyrins for photodynamic inactivation against Staphylococcus aureus biofilm” (Eur J Med Chem, 2025)
Each block holds one compound with its values, some of them ahead of it. The source made the active and inactive calls. The calls are words filed in the database; no cut-off is given here.

Columns and labels:
Staphylococcus aureus [1] = test: Antibiofilm activity against Staphylococcus aureus assessed as disruption of mature biofilm rate at 16 uM preincubated for 15 mins followed by light irradiation with 730 nm, 40 J/cm2 by crystal violet staining based analysis relative to control; format: functional; settings: 0.25 h
Escherichia coli [2] = test: Antibacterial activity against Escherichia coli assessed as bacterial growth inhibition preincubated with compound for 15 mins followed by light irradiated with 730 nm, 40 J/cm2 and measured after 24 hrs by broth microdilution method; format: functional; settings: light or radiation study, 24.25 h, time 1455 min
Staphylococcus aureus [3] = test: Antibacterial activity against Staphylococcus aureus assessed as log reduction in bacterial viability at 8 uM preincubated with compound for 15 mins followed by light irradiation with 730 nm, 40 J/cm2 by cell counting analysis relative to control; format: functional; settings: 0.25 h
Staphylococcus aureus [4] = test: Antibacterial activity against Staphylococcus aureus assessed as reduction in viable bacteria at 0.5 uM preincubated with compound for 15 mins followed by light irradiation with 730 nm, 40 J/cm2 by cell counting analysis relative to control; format: functional; settings: 0.25 h
Staphylococcus aureus [5] = test: Antibacterial activity against Staphylococcus aureus assessed as eradication rate at 8 uM preincubated with compound for 15 mins followed by light irradiation with 730 nm, 40 J/cm2 relative to control; format: functional; settings: 0.25 h
Staphylococcus aureus [6] = test: Antibiofilm activity against Staphylococcus aureus assessed as reduction in green fluorescence intensity at 16 uM preincubated for 15 mins followed by light irradiation with 730 nm, 40 J/cm2 by SYTO 9/PI staining based CLSM analysis; format: functional, organism-based
HaCaT [7] = test: Phototoxicity in human HaCaT cells assessed as cell viability at 16 uM preincubated for 15 mins by MTT assay; format: functional, cell-based
Staphylococcus aureus [8] = test: Antibacterial activity against Staphylococcus aureus assessed as bacterial growth inhibition measured after 24 hrs by broth microdilution method; format: functional
Staphylococcus aureus [9] = test: Bactericidal activity against Staphylococcus aureus at 0.5 to 8 uM; format: functional, organism-based; settings: dose 0.5-8 µM
[10] = Induction of singlet oxygen quantum yield under 418 nm light irradiation by DPBF based assay; format: functional
Staphylococcus aureus [11] = test: Antibiofilm activity against Staphylococcus aureus assessed as disruption of mature biofilm structure at 16 uM preincubated for 15 mins followed by light irradiation with 730 nm, 40 J/cm2 by crystal violet staining based analysis; format: functional, organism-based
[12] = Photophysical property of the compound assessed as singlet oxygen quantum yield by UV-vis spectrophotometric analysis; format: physicochemical
Staphylococcus aureus [13] = test: Antibiofilm activity against Staphylococcus aureus assessed as increase in red fluorescence intensity at 16 uM preincubated for 15 mins followed by light irradiation with 730 nm, 40 J/cm2 by SYTO 9/PI staining based CLSM analysis; format: functional, organism-based
Candida albicans [14] = test: Antifungal activity against Candida albicans assessed as fungal growth inhibition measured after 24 hrs by broth microdilution method; format: functional
Escherichia coli [15] = test: Antibacterial activity against Escherichia coli assessed as bacterial growth inhibition measured after 24 hrs by broth microdilution method; format: functional
Staphylococcus aureus [16] = test: Antibacterial activity against Staphylococcus aureus assessed as bacterial growth inhibition preincubated with compound for 15 mins followed by light irradiated with 730 nm, 40 J/cm2 and measured after 24 hrs by broth microdilution method; format: functional; settings: light or radiation study, 24.25 h, time 1455 min
Staphylococcus aureus [17] = test: Antibacterial activity against Staphylococcus aureus preincubated with compound for 15 mins followed by light irradiation with 730 nm, 40 J/cm2 by cell counting analysis; format: functional, organism-based; settings: dose 0.5-8 µM
[18] = Dark cytotoxicity against human HaCaT cells assessed as cell viability at 16 uM preincubated for 15 mins by MTT assay; format: toxicity, cell-based; settings: read-out: Activity
Candida albicans [19] = test: Antifungal activity against Candida albicans assessed as fungal growth inhibition preincubated with compound for 15 mins followed by light irradiated with 730 nm, 40 J/cm2 and measured after 24 hrs by broth microdilution method; format: functional; settings: light or radiation study, 24.25 h, time 1455 min
[20] = Photophysical property of the compound assessed as fluorescence quantum yield by UV-vis spectrophotometric analysis; format: physicochemical
HaCaT [21] = test: Phototoxicity in human HaCaT cells assessed as cell viability at 16 uM preincubated for 15 mins followed by light irradiation with 730 nm, 40 J/cm2 by MTT assay; format: functional, cell-based

Compound: C[N+](C)(C)CCCOc1ccc(-c2c3nc(c(-c4ccc(OCCC[N+](C)(C)C)cc4)c4[nH]c(c(-c5ccc(OCCC[N+](C)(C)C)cc5)c5nc(c(-c6ccc(OCCC[N+](C)(C)C)cc6)c6[nH]c2c2cc7ccccc7cc62)-c2cc6ccccc6cc2-5)c2cc5ccccc5cc42)-c2cc4ccccc4cc2-3)cc1.[Br-].[Br-].[Br-].[Br-]
Activity (Staphylococcus aureus [1]): 72.6%
MIC (Escherichia coli [2]): > 64 µM
log(activity) (Staphylococcus aureus [3]): 3
Activity (Staphylococcus aureus [4]): >75%
Activity (Staphylococcus aureus [5]): >99.9%
Activity (Staphylococcus aureus [6]): Active
Activity (HaCaT [7]): inactive
MIC (Staphylococcus aureus [8]): 32 µM
Activity (Staphylococcus aureus [9]): Active
Activity [10]: Active
Activity (Staphylococcus aureus [11]): Active
Activity [12]: 0.37
Activity (Staphylococcus aureus [13]): Active
MIC (Candida albicans [14]): 64 µM
MIC (Escherichia coli [15]): > 64 µM
MIC (Staphylococcus aureus [16]): 8 µM
Activity (Staphylococcus aureus [17]): Dose-dependent-effect
viability at 0.25 h, 16 µM [18]: > 80%
MIC (Candida albicans [19]): 64 µM
Activity [20]: 0.07
Activity (HaCaT [21]): inactive

Compound: C[N+](C)(C)CCCCCCOc1ccc(-c2c3nc(c(-c4ccc(OCCCCCC[N+](C)(C)C)cc4)c4[nH]c(c(-c5ccc(OCCCCCC[N+](C)(C)C)cc5)c5nc(c(-c6ccc(OCCCCCC[N+](C)(C)C)cc6)c6[nH]c2c2cc7ccccc7cc62)-c2cc6ccccc6cc2-5)c2cc5ccccc5cc42)-c2cc4ccccc4cc2-3)cc1.[Br-].[Br-].[Br-].[Br-]
MIC (Escherichia coli [2]): > 64 µM
MIC (Staphylococcus aureus [8]): 64 µM
Activity [10]: Active
Activity [12]: 0.48
MIC (Candida albicans [14]): 64 µM
MIC (Escherichia coli [15]): > 64 µM
MIC (Staphylococcus aureus [16]): 16 µM
MIC (Candida albicans [19]): 64 µM
Activity [20]: 0.07

MIC (Escherichia coli [2]): > 64 µM
MIC (Staphylococcus aureus [8]): 64 µM
Activity [12]: 0.47
MIC (Candida albicans [14]): 64 µM
MIC (Escherichia coli [15]): > 64 µM
MIC (Staphylococcus aureus [16]): 16 µM
MIC (Candida albicans [19]): 64 µM
Activity [20]: 0.07
Compound: C[N+](C)(C)CCCCCOc1ccc(-c2c3nc(c(-c4ccc(OCCCCC[N+](C)(C)C)cc4)c4[nH]c(c(-c5ccc(OCCCCC[N+](C)(C)C)cc5)c5nc(c(-c6ccc(OCCCCC[N+](C)(C)C)cc6)c6[nH]c2c2cc7ccccc7cc62)-c2cc6ccccc6cc2-5)c2cc5ccccc5cc42)-c2cc4ccccc4cc2-3)cc1.[Br-].[Br-].[Br-].[Br-]
Activity [10]: Active

Compound: CC[N+](C)(CC)CCCCOc1ccc(-c2c3nc(c(-c4ccc(OCCCC[N+](C)(CC)CC)cc4)c4[nH]c(c(-c5ccc(OCCCC[N+](C)(CC)CC)cc5)c5nc(c(-c6ccc(OCCCC[N+](C)(CC)CC)cc6)c6[nH]c2c2cc7ccccc7cc62)-c2cc6ccccc6cc2-5)c2cc5ccccc5cc42)-c2cc4ccccc4cc2-3)cc1.[Br-].[Br-].[Br-].[Br-]
MIC (Escherichia coli [2]): > 64 µM
MIC (Staphylococcus aureus [8]): 16 µM
Activity [10]: Active
Activity [12]: 0.56
MIC (Candida albicans [14]): 64 µM
MIC (Escherichia coli [15]): > 64 µM
MIC (Staphylococcus aureus [16]): 8 µM
MIC (Candida albicans [19]): 64 µM
Activity [20]: 0.07

Compound: CC[N+](C)(CC)CCCCCCOc1ccc(-c2c3nc(c(-c4ccc(OCCCCCC[N+](C)(CC)CC)cc4)c4[nH]c(c(-c5ccc(OCCCCCC[N+](C)(CC)CC)cc5)c5nc(c(-c6ccc(OCCCCCC[N+](C)(CC)CC)cc6)c6[nH]c2c2cc7ccccc7cc62)-c2cc6ccccc6cc2-5)c2cc5ccccc5cc42)-c2cc4ccccc4cc2-3)cc1.[Br-].[Br-].[Br-].[Br-]
MIC (Escherichia coli [2]): > 64 µM
MIC (Staphylococcus aureus [8]): 64 µM
Activity [10]: Active
Activity [12]: 0.68
MIC (Candida albicans [14]): 64 µM
MIC (Escherichia coli [15]): > 64 µM
MIC (Staphylococcus aureus [16]): 64 µM
MIC (Candida albicans [19]): 64 µM
Activity [20]: 0.07
